Data taken from the supplement of paper PMC4862054.

Legend:
Settings in all cases: incubation time: 72 h
HCC1143 = experiment: normalised response (% of control), CellTiter-Glo; higher = more viable cells (100 = DMSO, 0 = benzethonium chloride kill control)
Method: (§1)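 DSRT, 72 h incubation, CellTox Green / CellTiter-Glo readout. Signal is normalised to DMSO and benzethonium chloride controls. Value is the normalised response at the highest dose.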

MDA-MB-436 [1] = experiment: as above
Method: as §1

MDA-MB-468 = experiment: as above
Method: as §1

HCC1937 = experiment: as above
Method: as §1

SK-BR-3 = experiment: as above
Method: as §1

CAL-51 [2] = experiment: normalised viability (% of control), CellTiter-Blue; higher = more viable cells (about 100 = DMSO control)
Method: (§2)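 DSRT, CellTiter-Blue viability, 72 h incubation. Signal is normalised to DMSO and benzethonium chloride controls. Value is the normalised response at dose 9.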

DU-4475 = experiment: as above
Method: as §2

CAL-85-1 = experiment: as above
Method: as §2

CAL-148 [3] = experiment: as above
Method: as §2

HDQ-P1 [4] = experiment: as above
Method: as §2

MDA-MB-453 = experiment: as above
Method: as §2

MFM-223 = experiment: drug sensitivity score (DSS), CellTiter-Glo (DSS (AUC-based score)); higher = stronger drug effect (viability inhibition or cytotoxicity); extreme values may be limits of the assay
In short: (§3)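 Using 20 µl of cell suspension per well, breast cancer cell lines were seeded into 384-well plates pre-loaded with compound at 5 concentrations in 10-fold steps across a compound-specific 10,000-fold range. Incubation lasted 72 h, after which CellTox Green fluorescence at 485/520 nm and then CellTiter-Glo luminescence, following 10 min at room temperature, were recorded. Each plate was normalised to 0.1 % DMSO and a positive kill control before the drug sensitivity score was derived from the area under the fitted dose-response curve.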

HCC1599 = experiment: as above
In short: as §3

MDA-MB-436 [5] = experiment: as above
In short: as §3

CAL-51 [6] = experiment: as above
In short: as §3

BT-474 = experiment: as above
In short: as §3

BT-549 = experiment: as above
In short: as §3

CAL-148 [7] = experiment: as above
In short: as §3

HDQ-P1 [8] = experiment: as above
In short: as §3

| SMILES | normalised response (HCC1143) [%] | normalised response (MDA-MB-436 [1]) [%] | normalised response (MDA-MB-468) [%] | normalised response (HCC1937) [%] | normalised response (SK-BR-3) [%] | normalised viability (CAL-51 [2]) [%] | normalised viability (DU-4475) [%] | normalised viability (CAL-85-1) [%] | normalised viability (CAL-148 [3]) [%] | normalised viability (HDQ-P1 [4]) [%] | normalised viability (MDA-MB-453) [%] | drug sensitivity score (MFM-223) | drug sensitivity score (HCC1599) | drug sensitivity score (MDA-MB-436 [5]) | drug sensitivity score (CAL-51 [6]) | drug sensitivity score (BT-474) | drug sensitivity score (BT-549) | drug sensitivity score (CAL-148 [7]) | drug sensitivity score (HDQ-P1 [8]) |
| --- | --- | --- | --- | --- | --- | --- | --- | --- | --- | --- | --- | --- | --- | --- | --- | --- | --- | --- | --- |
| Cc1ccc(-n2nc(C(C)(C)C)cc2NC(=O)Nc2ccc(OCCN3CCOCC3)c3ccccc23)cc1 [Doramapimod] (10000 nM) | 91.3 | 99.7 | 72.5 | 77.7 | 69.5 | 86.8 | 102 | 72.6 | 111 | 81 | 62.7 |  |  |  |  |  |  |  |  |
| C#Cc1cccc(Nc2ncnc3cc(OCCOC)c(OCCOC)cc23)c1 [Erlotinib] (10000 nM) | 79.7 | 79 | 59.1 | 76.4 | 48 | 50.9 | 84.5 | 47.7 | 24.7 | 68 | 55.1 |  |  |  |  |  |  |  |  |
| C[C@]12CC[C@@H]3c4ccc(O)cc4C[C@@H](CCCCCCCCC[S+]([O-])CCCC(F)(F)C(F)(F)F)[C@H]3[C@@H]1CC[C@@H]2O (some centres undefined) [Fulvestrant] |  |  |  |  |  |  |  |  |  |  |  | 0 | 0 | 0 | 0 | 0 | 0 | 0 | 0 |
| C[C@]12CC[C@@H]3c4ccc(O)cc4C[C@@H](CCCCCCCCC[S+]([O-])CCCC(F)(F)C(F)(F)F)[C@H]3[C@@H]1CC[C@@H]2O (some centres undefined) [Fulvestrant] (1000 nM) | 106 | 105 | 96 | 94 | 104 |  |  |  |  |  |  |  |  |  |  |  |  |  |  |
| O=P1(NCCCl)OCCCN1CCCl (centres undefined) [Ifosfamide] (10000 nM) | 96.8 | 92.5 | 93.7 | 96.5 | 93.1 | 107 | 85.1 | 88.4 | 101 | 125 | 106 |  |  |  |  |  |  |  |  |
| CC(C)Cn1cnc2c(N)nc3ccccc3c21 [Imiquimod] |  |  |  |  |  |  |  |  |  |  |  | 0 | 0 | 0 | 0 | 0 | 0 | 0 | 0 |
| CC1(C)NC(=O)N(c2ccc([N+](=O)[O-])c(C(F)(F)F)c2)C1=O [Nilutamide] (10000 nM) | 101 | 114 | 111 | 94.3 | 108 | 89.4 | 97.4 | 90.7 | 99.8 | 136 | 106 |  |  |  |  |  |  |  |  |
| CCCCCCCCCCCCCCCCCCOP(=O)([O-])OC1CC[N+](C)(C)CC1 [Perifosine] |  |  |  |  |  |  |  |  |  |  |  | 0 | 0 | 0.0848 | 0 | 0 | 0 | 0 | 0 |
| Cc1ccc(C(=O)Nc2ccc(CN3CCN(C)CC3)c(C(F)(F)F)c2)cc1C#Cc1cnc2cccnn12 [Ponatinib] (1000 nM) | 86 | 64.7 | 69.2 | 60.6 | 68.3 | 42 | 50.2 | 50.1 | 77.5 | 21.9 | 38.4 |  |  |  |  |  |  |  |  |
| Cn1c(Nc2ccc(C(F)(F)F)cc2)nc2cc(Oc3ccnc(-c4ncc(C(F)(F)F)[nH]4)c3)ccc21 [RAF265] (1000 nM) | 94.2 | 67.7 | 50.8 | 63.7 | 92.1 | 48 | 42.3 | 47.2 | 64.1 | 34 | 89.2 |  |  |  |  |  |  |  |  |
| CNCc1ccc(-c2[nH]c3cc(F)cc4c3c2CCNC4=O)cc1 [Rucaparib] (10000 nM) | 94.5 | 85.7 | 68.9 | 79.7 | 67.7 | 40.5 | 46.2 | 45.8 | 37.5 | 106 | 32.1 |  |  |  |  |  |  |  |  |
| N[C@@H](CSC(c1ccccc1)(c1ccccc1)c1ccccc1)C(=O)O [S-trityl-L-cysteine] (40000 nM) | 92.8 | 95.3 | 104 | 93.5 | 99 | 87 | 92.2 | 87.5 | 114 | 65 | 83.2 |  |  |  |  |  |  |  |  |
| O=C1CCC(N2C(=O)c3ccccc3C2=O)C(=O)N1 (centres undefined) [Thalidomide] |  |  |  |  |  |  |  |  |  |  |  | 0 | 0 | 0 | 0 | 0 | 0 | 0 | 0 |
| O=C1CCC(N2C(=O)c3ccccc3C2=O)C(=O)N1 (centres undefined) [Thalidomide] (10000 nM) | 94.7 | 96 | 91.6 | 98 | 106 | 90.6 | 97.5 | 104 | 106 | 105 | 102 |  |  |  |  |  |  |  |  |
| Clc1ccc(Nc2nnc(Cc3ccncc3)c3ccccc23)cc1 [Vatalanib] |  |  |  |  |  |  |  |  |  |  |  | 0 | 0 | 0 | 0 | 0 | 0 | 0 | 0 |
